In patent US20100137344A1, “INDUCTION OF ANALGESIA IN NEUROPATHIC PAIN” (University Court of the University of Edinburgh, priority 2006, published 2010):

Columns and labels:
Format in all cases: in vivo, rat
[1] = system: rats with chronic constriction injury (CCI) to sciatic nerve; experiment: Intrathecal application in CCI rats, behavioural reflex testing (PWL, PWT); settings: for mean percentage reversal of sensitisation by (−)-menthol with antagonist, PWL / mean percentage reversal of sensitisation by (−)-menthol with antagonist, PWT: (−)-menthol 200 nmol plus intrathecal antagonist, 20-30 minutes post-injection; for effect on analgesia by intrathecal icilin: LY 341495 5 nmol, UBP 1112 10 nmol co-administered with icilin 10 nmol; for effect of antagonist alone: intrathecal, data not shown
Experimental: Pain models were generated under halothane anaesthesia (Zeneca, Cheshire, UK). For the chronic constriction injury (CCI) model of neuropathic pain, four ligatures were tied loosely to constrict the sciatic nerve at mid-thigh level (as described previously^[39]). An inflammatory pain model was generated by injecting 100 μl of Complete Freund's Adjuvant (CFA, Sigma-Aldrich Ltd) into the ventral surface of the right hindpaw^[39]. A model of peripheral demyelination-induced pain was produced by focal application of lysolecithin to the sciatic nerve^[40]. Peak behavioural sensitisation was observed post-surgically between days 10-16 for CCI, 1-3 for CFA, and 7-14 for lysolecithin, when pharmacological and electrophysiological experiments and tissue removal were conducted.
(§1) Thermal sensitivity was assessed by measuring paw withdrawal latency (PWL, s) in response to a noxious thermal stimulus (Hargreaves' thermal stimulator, Linton Instrumentation, Diss, UK) directed to the hindpaw mid-plantar glabrous surface. Mechanical sensitivity was recorded as the paw withdrawal threshold (PWT, mN/mm^2) to calibrated von Frey filaments (Stoelting, Ill., US), as previously described^[39]. Sensitivity to noxious cold was assessed by placing animals in a waterbath with an aluminium floor containing 1 cm deep 4° C. water and counting the time the paw was held suspended over a 20 s period.
(§2) The following drugs were applied intrathecally in a 50 μl volume of saline-based vehicle at 37° C.: icilin (2.5-200 μM in saline with 0.2% dimethylformamide, DMF), LY 341495 (100 μM in saline), UBP 1112 (200 μM in saline), 2R,4R-APDC ((2R, 4R)-4-aminopyrrolidine-2,4-dicarboxylate), 300 μM in saline), ACPT-III ((1R,3R,4S)-1-aminocyclopentane-1,3,4-tricarboxylic acid), 3 mM in saline), AP-4, ((L-(1)-2-amino-4-phosphonobutyric acid), 3 mM in saline), naloxone (0.5 mM in saline), NMDA (75 μM in saline) and ACPC (1-aminocyclopropanecarboxylic acid, 15 μM in saline) (Tocris Cookson, Bristol, UK), (−)-menthol (1R,2S,5R-(−)-menthol, 4 mM in saline), cinnamaldehyde (1.5 mM in saline) and Ruthenium Red (5 μM in saline) (Sigma-Aldrich Co. Ltd, UK) and allicin (0.5 mM in saline with 0.5% DMF) and diallyl disulphide (DADS, 1 mM in saline with 0.5% DMF) (LKT Laboratories Inc., St Paul, Minn., USA). Drugs were injected into the L5/6 intrathecal space under brief halothane anaesthesia, using a 25-gauge needle microsyringe (BD Biosciences, Oxford, UK), as described previously^[39] in animals that were at peak levels of behavioural sensitisation. Behavioural reflex testing commenced 15 min following injection to allow recovery from anaesthesia^[40,41,42] and continued every 5 min thereafter until readings returned to baseline levels (n=6 in each case). We, and others^[40,41,42] find complete recovery from anaesthetic by 15 minutes. All appropriate controls were carried out to eliminate the possibility of effects due to vehicle or to injection procedure.
(§3) The TRPM8 channel activators, icilin and (−)-menthol were tested in CCI and naïve animals. The effects of icilin were additionally assessed in animals with CFA-induced inflammation or with lysolecithin-induced demyelination. Icilin was also co-administered with the μ-opioid receptor antagonist naloxone, the Group II metabotropic glutamate receptor (mGluR) antagonist, LY 341495, or the Group III mGluR antagonist, UBP 1112. The effects of these antagonists alone as well as effects of the Group II mGluR agonist, 2R,4R-APDC and the Group III mGluR agonists, ACPT-III and AP-4, were assessed in CCI animals. The TRPA1 channel activator, cinnamaldehyde, alone and with icilin, was tested in CCI animals and in naïve animals. Further TRPA1 channel activators, allicin and diallyl disulphide were assessed in naïve animals. Both icilin and cinnamaldehyde effects in CCI animals were also investigated in the additional presence of Ruthenium Red.

dorsal horn neurons = experiment: Extracellular recordings of single spinal dorsal horn neurons in CCI animals (brush-evoked firing)
Experimental: Peripheral: Recordings of saphenous (sensory) nerve were made in naïve animals (n=7) to assess the effects of topical icilin on primary afferents. In addition, recordings were carried out on animals which had undergone TRPM8 antisense or mis-sense treatment beginning 4-5 days previously. Rats were anaesthetised (with 0.6 ml 25% urethane/100 g, i.p.) and the saphenous nerve was exposed and dissected from its associated vein and artery. Further dissection under liquid paraffin enabled identification of afferent preparations comprising a small number of fibres. The conduction velocity of single identified afferent fibres was determined using bipolar electrodes and the peripheral stimulus technique^[43]. Following isolation of preparations, icilin (200 μM in water with 0.2% DMF), (−)-menthol (4 mM in 25% ethanol) resiniferatoxin (1 mM in ethanol) or vehicle alone were applied to the hindlimb receptive fields and neuronal responses recorded using the Chart programme (version 3.6). Central: Recordings of spinal dorsal horn neurons were made in CCI animals, as described previously^[39]. Following halothane induction, the jugular vein and trachea were canulated and intravenous anaesthetic delivered: α-chloralose ([…], Fisher) and urethane ([…], Sigma), with small supplementary doses of α-chloralose as required throughout the experiment. Core body temperature was maintained at 37-38° C. by means of a thermostatically controlled heated blanket. The animal was placed in a stereotaxic frame, and the thoracolumbar spinal column was supported using three pairs of swan-necked clamps. A laminectomy was performed at L2-L5, and agar (2% in saline at 37° C.) was delivered over exposed cord to increase mechanical stability. Above the recording region the agar and spinal cord dura were removed and liquid paraffin poured into the pool. Extracellular recordings were made from single multireceptive neurons in laminae I-IV through the centre barrel of a seven-barrelled glass microelectrode filled with 4M NaCl (tip-diameter […], DC resistance 5-8 MΩ). The receptive fields of hair-follicle innervated neurons on the distal hindlimb were identified by an innocuous brush stimulus^[39]. Icilin (200 μM in water with 0.2% DMF) was applied peripherally to the receptive field of individual recorded neurons, and the effect on neuronal response to a rotating brush was recorded and analysed using Spike2 programme (Version 3.2, CED). The Group III mGluR antagonist UBP 1112 (20 mM in water), pH 8.5, and control 1M NaCl, pH 8.5 were ionophoresed from the side barrels of the electrode using currents of between 20 nA and 80 nA (Neurophore BH2 ionophoresis system, Medical Systems, Great Neck, N.Y.) to measure effects on neuronal response to icilin.

[2] = system: rats with chronic constriction injury (CCI); experiment: Cooling (16° C.)-induced analgesia in CCI rats with intrathecal mGluR antagonists; settings: skin cooling to 16° C.; intrathecal LY 341495 5 nmol or UBP 1112 10 nmol
Experimental: Icilin was applied at concentrations of 2.5-500 μM (in water with 0.2% DMF), by placing CCI or naïve rats unrestrained for 5 min in a 1 cm deep waterbath (sufficient to cover paws), which was thermostatically controlled to a temperature of 30° C., or by very lightly anaesthetising rats and immersing hindpaws in small tubes containing 5 ml icilin (500 μM-5 mM, with a vehicle of 45% dimethylformamide in 0.2% aqueous Tween 80) for 5 min, followed by sensory testing for 60-80 mins. The effects of (−)-menthol and its stereoisomers isomenthol (1S,2R,5R-menthol,) and (+)-menthol (1S,2R,5S(+)-menthol) (4-16 mM in 80% ethanol) were also assessed. Relevant vehicles were always assessed in similar experiments. As a contrast, the effect of cinnamaldehyde (1.5 mM in water) and the effect of cinnamaldehyde with additional icilin (80 μM in water with 0.2% DMF) were assessed in naïve animals. The effects of icilin (80 μM) were further assessed in CCI animals that had undergone antisense and mis-sense treatment for knockdown of TRPM8 or immediately following intrathecal injection of either LY 341495 or UBP 1112. […] The effects of brief paw immersion at different temperatures (10-22° C. for 5 min) on CCI rats were assessed by mechanical testing. The effects of intrathecal LY 341495 or UBP 1112 on the reversal of ipsilateral sensitisation in CCI following a 16° C. cool challenge for 5 min were measured. […]

[3] = system: rats with chronic constriction injury (CCI) to sciatic nerve; experiment: Topical application to paws of CCI rats, behavioural reflex testing (thermal PWL, mechanical PWT); settings: icilin 200 μM topical; mGluR antagonists intrathecally
naïve rats [4] = experiment: Intrathecal application in naïve rats, behavioural reflex testing (PWL, PWT); settings: naïve animals, cinnamaldehyde 75 nmol, allicin 25 nmol
Experimental: as §1, §2, §3

naïve rats [5] = experiment: Topical application to paws of naïve rats, behavioural reflex testing (PWL, PWT); settings: topical cinnamaldehyde 1.5 mM; bilateral
Experimental: as §1
Icilin was applied at concentrations of 2.5-500 μM (in water with 0.2% DMF), by placing CCI or naïve rats unrestrained for 5 min in a 1 cm deep waterbath (sufficient to cover paws), which was thermostatically controlled to a temperature of 30° C., or by very lightly anaesthetising rats and immersing hindpaws in small tubes containing 5 ml icilin (500 μM-5 mM, with a vehicle of 45% dimethylformamide in 0.2% aqueous Tween 80) for 5 min, followed by sensory testing for 60-80 mins. The effects of (−)-menthol and its stereoisomers isomenthol (1S,2R,5R-menthol,) and (+)-menthol (1S,2R,5S(+)-menthol) (4-16 mM in 80% ethanol) were also assessed. Relevant vehicles were always assessed in similar experiments. As a contrast, the effect of cinnamaldehyde (1.5 mM in water) and the effect of cinnamaldehyde with additional icilin (80 μM in water with 0.2% DMF) were assessed in naïve animals. The effects of icilin (80 μM) were further assessed in CCI animals that had undergone antisense and mis-sense treatment for knockdown of TRPM8 or immediately following intrathecal injection of either LY 341495 or UBP 1112. […] The effects of brief paw immersion at different temperatures (10-22° C. for 5 min) on CCI rats were assessed by mechanical testing. The effects of intrathecal LY 341495 or UBP 1112 on the reversal of ipsilateral sensitisation in CCI following a 16° C. cool challenge for 5 min were measured. Reflex testing commenced 5 minutes following challenge, unless animals had been anaesthetised, in which case 15 minutes was allowed for recovery. Six replicate animals were tested in all pharmacological experiments.

[6] = system: rats sensitised by the TRPA1 activator cinnamaldehyde; experiment: Cinnamaldehyde-induced sensitisation and its reversal by icilin (PWL, PWT); settings: difference from prior baseline, no icilin
Experimental: as §1, §2, §3
Icilin was applied at concentrations of 2.5-500 μM (in water with 0.2% DMF), by placing CCI or naïve rats unrestrained for 5 min in a 1 cm deep waterbath (sufficient to cover paws), which was thermostatically controlled to a temperature of 30° C., or by very lightly anaesthetising rats and immersing hindpaws in small tubes containing 5 ml icilin (500 μM-5 mM, with a vehicle of 45% dimethylformamide in 0.2% aqueous Tween 80) for 5 min, followed by sensory testing for 60-80 mins. The effects of (−)-menthol and its stereoisomers isomenthol (1S,2R,5R-menthol,) and (+)-menthol (1S,2R,5S(+)-menthol) (4-16 mM in 80% ethanol) were also assessed. Relevant vehicles were always assessed in similar experiments. As a contrast, the effect of cinnamaldehyde (1.5 mM in water) and the effect of cinnamaldehyde with additional icilin (80 μM in water with 0.2% DMF) were assessed in naïve animals. […]

Structure (SMILES) | mean percentage reversal of sensitisation by (−)-menthol with antagonist, PWL [1] | mean percentage reversal of sensitisation by (−)-menthol with antagonist, PWT [1] | effect on analgesia by intrathecal icilin [1] | effect of antagonist alone [1] | mean percentage reversal of ipsilateral CCI-induced reductions in PWT caused by cooling [2] | effect on reversal of thermal and mechanical sensitisation by topical icilin [3] | reduction in PWT (naïve rats [4]; diallyl disulphide 50 mmol) | reduction in PWL (naïve rats [4]; diallyl disulphide 50 mmol) | also measured
Cc1cc(C(C)(N)C(=O)O)ccc1P(=O)(O)O (stereo not drawn) [UBP 1112] | 9.2±6.9% | 0.0±0.0% | prevented the effect of icilin | Neither LY 341495 nor UBP 1112 had any effects alone | 0.0±0.0% | prevented |  |  | brush-induced firing rate with icilin plus UBP 1112 (dorsal horn neurons; UBP 1112 ionophoresed at 20-60 nA, icilin 200 μM topical): 80.2±9.3 % of control values; effect of UBP 1112 alone on neuronal responses (dorsal horn neurons; ionophoresis): had no effect alone
C=CCSSCC=C [diallyl disulphide] |  |  |  |  |  |  | 28.5±6.2% |  | reduction in PWL (naïve rats [4]; diallyl disulphide): 25.9±7.0%
C=CCS[S+]([O-])CC=C (stereo not drawn) [allicin] |  |  |  |  |  |  | 20.7±8.2% | 33.2±5.9% | 
N[C@](CC1c2ccccc2Oc2ccccc21)(C(=O)O)[C@H]1C[C@@H]1C(=O)O [LY 341495] | 22.0±6.9% | 7.1±7.1% | prevented the effect of icilin | Neither LY 341495 nor UBP 1112 had any effects alone | 0.0±0.0% | prevented |  |  | 
O=CC=Cc1ccccc1 [cinnamaldehyde] |  |  |  |  |  |  | 41.9±6.7% | 36.9±7.9% | mean decrease in PWL (naïve rats [5]): 32.0±8.6%; mean decrease in PWT (naïve rats [5]): 20.2±8.2%; reflex responsiveness in thermal and mechanical tests ([1]; cinnamaldehyde 75 nmol intrathecal, contralateral as well as ipsilateral to nerve injury): significantly increased reflex responsiveness; PWL (s) difference from control (no drug) ([6]; cinnamaldehyde intrathecal): 5.9 ± 0.9 s; PWT (mN/mm^2) difference from control (no drug) ([6]; cinnamaldehyde intrathecal): 2022.6 ± 375.4 mN/mm^2; PWL (s) difference from control (no drug) ([6]; cinnamaldehyde topical): 5.0 ± 1.5 s; PWT (mN/mm^2) difference from control (no drug) ([6]; cinnamaldehyde topical): 1002.0 ± 316.8 mN/mm^2
